Experimental data: ChEMBL document CHEMBL4706498, “Rosuvastatin based novel 3-substituted isocoumarins / 3-alkylidenephthalides: Ultrasound assisted synthesis and identification of new anticancer agents” (Eur J Med Chem, 2020)
Active and inactive are the calls of the source. The rule behind the calls is not given here.

Test system: HCT-116
Assay: Cytotoxicity against human HCT-116 cells assessed as inhibition of cell growth at 10 uM measured after 24 hrs by MTT assay (reference value: 0.17%)
Format: functional
Details: not given

Structure (SMILES)	inhibition at 10 µM
COc1cccc2c1C(=O)c1c(O)c3c(c(O)c1C2=O)C[C@@](O)(C(=O)CO)C[C@@H]3O[C@H]1C[C@H](N)[C@H](O)[C@H](C)O1 [DOXORUBICIN]	61%
CC(C)c1nc(N(C)S(C)(=O)=O)nc(-c2ccc(F)cc2)c1COCc1cc2ccc(Cl)cc2c(=O)o1	23.4%
Cc1cc(Cl)cc2c1/C(=C/COCc1c(-c3ccc(F)cc3)nc(N(C)S(C)(=O)=O)nc1C(C)C)OC2=O	16%
CC(C)c1nc(N(C)S(C)(=O)=O)nc(-c2ccc(F)cc2)c1COC/C=C1\OC(=O)c2ccc(Cl)cc21	29.3%
COc1ccc2c(c1)/C(=C/COCc1c(-c3ccc(F)cc3)nc(N(C)S(C)(=O)=O)nc1C(C)C)OC2=O	35.1%
COc1ccc2c(c1)C(=O)O/C2=C\COCc1c(-c2ccc(F)cc2)nc(N(C)S(C)(=O)=O)nc1C(C)C	33.5%
CC(C)c1nc(N(C)S(C)(=O)=O)nc(-c2ccc(F)cc2)c1COC/C=C1\OC(=O)c2ccccc21	20.2%
COc1ccc2cc(COCc3c(-c4ccc(F)cc4)nc(N(C)S(C)(=O)=O)nc3C(C)C)oc(=O)c2c1	43.2%
Cc1ccc2c(c1)C(=O)O/C2=C\COCc1c(-c2ccc(F)cc2)nc(N(C)S(C)(=O)=O)nc1C(C)C	24.3%
CC(C)c1nc(N(C)S(C)(=O)=O)nc(-c2ccc(F)cc2)c1COC/C=C1\OC(=O)c2ccc(F)cc21	19.8%
COc1cc2c(cc1OC)/C(=C/COCc1c(-c3ccc(F)cc3)nc(N(C)S(C)(=O)=O)nc1C(C)C)OC2=O	53.7%

Test system: HepG2
Assay: Cytotoxicity against human HepG2 cells assessed as inhibition of cell growth at 10 uM measured after 24 hrs by MTT assay (reference value: 0.21%)
Format: functional
Details: not given

Structure (SMILES)	inhibition at 10 µM
COc1cccc2c1C(=O)c1c(O)c3c(c(O)c1C2=O)C[C@@](O)(C(=O)CO)C[C@@H]3O[C@H]1C[C@H](N)[C@H](O)[C@H](C)O1 [DOXORUBICIN]	57%
CC(C)c1nc(N(C)S(C)(=O)=O)nc(-c2ccc(F)cc2)c1COCc1cc2ccc(Cl)cc2c(=O)o1	20.6%
Cc1cc(Cl)cc2c1/C(=C/COCc1c(-c3ccc(F)cc3)nc(N(C)S(C)(=O)=O)nc1C(C)C)OC2=O	14.1%
CC(C)c1nc(N(C)S(C)(=O)=O)nc(-c2ccc(F)cc2)c1COC/C=C1\OC(=O)c2ccc(Cl)cc21	12.6%
COc1ccc2c(c1)/C(=C/COCc1c(-c3ccc(F)cc3)nc(N(C)S(C)(=O)=O)nc1C(C)C)OC2=O	38.6%
COc1ccc2c(c1)C(=O)O/C2=C\COCc1c(-c2ccc(F)cc2)nc(N(C)S(C)(=O)=O)nc1C(C)C	39.3%
CC(C)c1nc(N(C)S(C)(=O)=O)nc(-c2ccc(F)cc2)c1COC/C=C1\OC(=O)c2ccccc21	19.3%
COc1ccc2cc(COCc3c(-c4ccc(F)cc4)nc(N(C)S(C)(=O)=O)nc3C(C)C)oc(=O)c2c1	39.1%
Cc1ccc2c(c1)C(=O)O/C2=C\COCc1c(-c2ccc(F)cc2)nc(N(C)S(C)(=O)=O)nc1C(C)C	29.6%
CC(C)c1nc(N(C)S(C)(=O)=O)nc(-c2ccc(F)cc2)c1COC/C=C1\OC(=O)c2ccc(F)cc21	27.5%
COc1cc2c(cc1OC)/C(=C/COCc1c(-c3ccc(F)cc3)nc(N(C)S(C)(=O)=O)nc1C(C)C)OC2=O	50.1%

Test system: PA-1
Assay: Cytotoxicity against human PA-1 cells assessed as inhibition of cell growth at 10 uM measured after 24 hrs by MTT assay (reference value: 0.19%)
Format: functional
Details: not given

Structure (SMILES)	inhibition at 10 µM
COc1cccc2c1C(=O)c1c(O)c3c(c(O)c1C2=O)C[C@@](O)(C(=O)CO)C[C@@H]3O[C@H]1C[C@H](N)[C@H](O)[C@H](C)O1 [DOXORUBICIN]	81.3%
CC(C)c1nc(N(C)S(C)(=O)=O)nc(-c2ccc(F)cc2)c1COCc1cc2ccc(Cl)cc2c(=O)o1	20.9%
Cc1cc(Cl)cc2c1/C(=C/COCc1c(-c3ccc(F)cc3)nc(N(C)S(C)(=O)=O)nc1C(C)C)OC2=O	18.4%
CC(C)c1nc(N(C)S(C)(=O)=O)nc(-c2ccc(F)cc2)c1COC/C=C1\OC(=O)c2ccc(Cl)cc21	19.4%
COc1ccc2c(c1)/C(=C/COCc1c(-c3ccc(F)cc3)nc(N(C)S(C)(=O)=O)nc1C(C)C)OC2=O	38.3%
COc1ccc2c(c1)C(=O)O/C2=C\COCc1c(-c2ccc(F)cc2)nc(N(C)S(C)(=O)=O)nc1C(C)C	46.5%
CC(C)c1nc(N(C)S(C)(=O)=O)nc(-c2ccc(F)cc2)c1COC/C=C1\OC(=O)c2ccccc21	52.3%
COc1ccc2cc(COCc3c(-c4ccc(F)cc4)nc(N(C)S(C)(=O)=O)nc3C(C)C)oc(=O)c2c1	38.3%
Cc1ccc2c(c1)C(=O)O/C2=C\COCc1c(-c2ccc(F)cc2)nc(N(C)S(C)(=O)=O)nc1C(C)C	22.5%
CC(C)c1nc(N(C)S(C)(=O)=O)nc(-c2ccc(F)cc2)c1COC/C=C1\OC(=O)c2ccc(F)cc21	15.1%
COc1cc2c(cc1OC)/C(=C/COCc1c(-c3ccc(F)cc3)nc(N(C)S(C)(=O)=O)nc1C(C)C)OC2=O	69.8%

Test system: not listed separately
Assay: Cytotoxicity against human HEK cells assessed as inhibition of cell growth at 10 uM measured after 24 hrs by MTT assay (reference value: 0.11%)
Format: cell-based
Details: not given

Structure (SMILES)	inhibition at 24 h, 10 µM
CC(C)c1nc(N(C)S(C)(=O)=O)nc(-c2ccc(F)cc2)c1COCc1cc2ccc(Cl)cc2c(=O)o1	2.3%
Cc1cc(Cl)cc2c1/C(=C/COCc1c(-c3ccc(F)cc3)nc(N(C)S(C)(=O)=O)nc1C(C)C)OC2=O	2.2%
CC(C)c1nc(N(C)S(C)(=O)=O)nc(-c2ccc(F)cc2)c1COC/C=C1\OC(=O)c2ccc(Cl)cc21	3.3%
COc1ccc2c(c1)/C(=C/COCc1c(-c3ccc(F)cc3)nc(N(C)S(C)(=O)=O)nc1C(C)C)OC2=O	3.8%
COc1ccc2c(c1)C(=O)O/C2=C\COCc1c(-c2ccc(F)cc2)nc(N(C)S(C)(=O)=O)nc1C(C)C	3.2%
CC(C)c1nc(N(C)S(C)(=O)=O)nc(-c2ccc(F)cc2)c1COC/C=C1\OC(=O)c2ccccc21	2.1%
COc1ccc2cc(COCc3c(-c4ccc(F)cc4)nc(N(C)S(C)(=O)=O)nc3C(C)C)oc(=O)c2c1	3.7%
Cc1ccc2c(c1)C(=O)O/C2=C\COCc1c(-c2ccc(F)cc2)nc(N(C)S(C)(=O)=O)nc1C(C)C	1.6%
CC(C)c1nc(N(C)S(C)(=O)=O)nc(-c2ccc(F)cc2)c1COC/C=C1\OC(=O)c2ccc(F)cc21	1.7%
COc1cc2c(cc1OC)/C(=C/COCc1c(-c3ccc(F)cc3)nc(N(C)S(C)(=O)=O)nc1C(C)C)OC2=O	4.3%

Test system: PANC-1
Assay: Inhibition of human Akt in human PANC-1 cells assessed as inhibition of Akt phosphorylation at 50 uM measured after 18 hrs by Western blot assay
Format: cell-based
Details: not given

Structure (SMILES)	inhibition
COc1cc2c(cc1OC)/C(=C/COCc1c(-c3ccc(F)cc3)nc(N(C)S(C)(=O)=O)nc1C(C)C)OC2=O	Active

Test system: PANC-1
Assay: Inhibition of human Akt in human PANC-1 cells assessed as cell growth arrest at 50 uM measured after 18 hrs by Western blot assay
Format: cell-based
Details: not given

Structure (SMILES)	inhibition
COc1cc2c(cc1OC)/C(=C/COCc1c(-c3ccc(F)cc3)nc(N(C)S(C)(=O)=O)nc1C(C)C)OC2=O	Active

Test system: PANC-1
Assay: Cytotoxicity against human PANC-1 cells assessed as decrease in cell viability at 50 uM measured after 18 hrs by MTT assay
Format: functional, cell-based
Details: not given

Structure (SMILES)	inhibition
COc1cc2c(cc1OC)/C(=C/COCc1c(-c3ccc(F)cc3)nc(N(C)S(C)(=O)=O)nc1C(C)C)OC2=O	Active

Molecular target: not listed separately
Assay: Inhibition of Protein kinase A (unknown origin)
Design: species or system Homo sapiens
Details: not given

Structure (SMILES)	IC50
COc1cc2c(cc1OC)/C(=C/COCc1c(-c3ccc(F)cc3)nc(N(C)S(C)(=O)=O)nc1C(C)C)OC2=O	> 10 µM

Test system: not listed separately
Assay: Toxicity in zebra fish embryo measured 5 days post fertilization by measuring teratogenicity at 1 to 100 uM
Design: species or system Danio rerio
Details: zebrafish, 120 h, dose 1-100 µM, time 5 day

Structure (SMILES)	Activity
COc1cc2c(cc1OC)/C(=C/COCc1c(-c3ccc(F)cc3)nc(N(C)S(C)(=O)=O)nc1C(C)C)OC2=O	Non-Toxic

Test system: not listed separately
Assay: Hepatotoxicity in 4 days post fertilize zebra fish embryo measured 7 days post fertilization at 1 to 100 uM
Format: toxicity, Danio rerio
Details: zebrafish, dose 1-100 µM

Structure (SMILES)	Activity
COc1cc2c(cc1OC)/C(=C/COCc1c(-c3ccc(F)cc3)nc(N(C)S(C)(=O)=O)nc1C(C)C)OC2=O	Non-Toxic

Test system: not listed separately
Assay: Toxicity in 7 days post fertilize zebrafish embryo assessed as morphological abnormalities or atrioventricular blocks measured after 24 hrs by bright field microscopic analysis
Design: species or system Danio rerio
Details: in vivo, dose 1-100 µM

Structure (SMILES)	Activity
COc1cc2c(cc1OC)/C(=C/COCc1c(-c3ccc(F)cc3)nc(N(C)S(C)(=O)=O)nc1C(C)C)OC2=O	Non-Toxic

Test system: not listed separately
Assay: Toxicity in 7 days post fertilize zebrafish embryo assessed as death at 1 to 100 uM after 24 hrs
Design: species or system Danio rerio
Details: in vivo, dose 1-100 µM

Structure (SMILES)	Activity
COc1cc2c(cc1OC)/C(=C/COCc1c(-c3ccc(F)cc3)nc(N(C)S(C)(=O)=O)nc1C(C)C)OC2=O	Non-Toxic

Test system: not listed separately
Assay: Toxicity in 7 days post fertilize zebrafish embryo assessed as morphological abnormalities at 1 to 100 uM after 24 hrs
Design: species or system Danio rerio
Details: in vivo, dose 1-100 µM

Structure (SMILES)	Activity
COc1cc2c(cc1OC)/C(=C/COCc1c(-c3ccc(F)cc3)nc(N(C)S(C)(=O)=O)nc1C(C)C)OC2=O	Non-Toxic

Molecular target: T1, RAC-alpha serine/threonine-protein kinase (Homo sapiens, UniProt P31749)
Assay: Binding affinity to Akt1 (unknown origin)
Details: not given

T1 sequence (P31749 whole entry): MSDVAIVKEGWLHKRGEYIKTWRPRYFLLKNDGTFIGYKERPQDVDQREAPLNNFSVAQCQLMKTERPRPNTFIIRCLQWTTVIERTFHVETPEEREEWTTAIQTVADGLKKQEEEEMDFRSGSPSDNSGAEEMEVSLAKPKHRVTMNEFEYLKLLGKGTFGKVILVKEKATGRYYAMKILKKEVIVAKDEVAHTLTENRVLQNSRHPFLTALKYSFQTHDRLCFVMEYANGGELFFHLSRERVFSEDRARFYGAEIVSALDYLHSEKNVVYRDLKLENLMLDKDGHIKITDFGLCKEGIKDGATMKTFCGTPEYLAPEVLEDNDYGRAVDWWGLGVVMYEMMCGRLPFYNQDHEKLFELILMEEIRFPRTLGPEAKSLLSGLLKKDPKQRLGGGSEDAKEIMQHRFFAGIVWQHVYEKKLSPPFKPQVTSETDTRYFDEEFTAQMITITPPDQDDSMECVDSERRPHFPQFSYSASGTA

Structure (SMILES)	Activity
COc1cccc2c1C(=O)c1c(O)c3c(c(O)c1C2=O)C[C@@](O)(C(=O)CO)C[C@@H]3O[C@H]1C[C@H](N)[C@H](O)[C@H](C)O1 [DOXORUBICIN]	-8.8 kcal/mol
COc1cc2c(cc1OC)/C(=C/COCc1c(-c3ccc(F)cc3)nc(N(C)S(C)(=O)=O)nc1C(C)C)OC2=O	-10.9 kcal/mol

Molecular target: RAC-beta serine/threonine-protein kinase (Homo sapiens) (UniProt P31751)
Assay: Binding affinity to Akt2 (unknown origin)
Details: not given

Sequence of RAC-beta serine/threonine-protein kinase (Homo sapiens) (P31751 whole entry): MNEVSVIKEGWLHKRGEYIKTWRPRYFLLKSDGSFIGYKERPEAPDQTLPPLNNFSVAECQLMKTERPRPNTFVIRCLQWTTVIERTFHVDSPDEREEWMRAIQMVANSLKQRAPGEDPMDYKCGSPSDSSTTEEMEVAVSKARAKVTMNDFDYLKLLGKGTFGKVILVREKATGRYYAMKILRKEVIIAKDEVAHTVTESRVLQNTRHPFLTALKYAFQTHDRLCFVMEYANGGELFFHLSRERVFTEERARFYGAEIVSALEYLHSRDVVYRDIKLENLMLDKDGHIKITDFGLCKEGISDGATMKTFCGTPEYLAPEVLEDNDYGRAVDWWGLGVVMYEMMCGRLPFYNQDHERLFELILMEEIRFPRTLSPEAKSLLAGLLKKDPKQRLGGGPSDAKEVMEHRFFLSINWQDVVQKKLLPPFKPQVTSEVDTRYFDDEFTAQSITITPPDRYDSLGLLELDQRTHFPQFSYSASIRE

Structure (SMILES)	Activity
COc1cccc2c1C(=O)c1c(O)c3c(c(O)c1C2=O)C[C@@](O)(C(=O)CO)C[C@@H]3O[C@H]1C[C@H](N)[C@H](O)[C@H](C)O1 [DOXORUBICIN]	-8.6 kcal/mol
COc1cc2c(cc1OC)/C(=C/COCc1c(-c3ccc(F)cc3)nc(N(C)S(C)(=O)=O)nc1C(C)C)OC2=O	-9.9 kcal/mol

Molecular target: T1, RAC-alpha serine/threonine-protein kinase
Details: not given

Structure (SMILES)	IC50
COc1cc2c(cc1OC)/C(=C/COCc1c(-c3ccc(F)cc3)nc(N(C)S(C)(=O)=O)nc1C(C)C)OC2=O	3.7 µM
